molecular target: Cannabinoid receptor 2 (Homo sapiens, UniProt P34972); experiment: Radioligand Binding Assay
Description: IC50 values for test compounds were determined from nonlinear regression analysis of data collected from ligand binding experiments. The inhibition constant (Ki) was calculated from IC50 value by the Cheng and Prusoff equation.

Cannabinoid receptor 2, sequence (P34972 whole entry): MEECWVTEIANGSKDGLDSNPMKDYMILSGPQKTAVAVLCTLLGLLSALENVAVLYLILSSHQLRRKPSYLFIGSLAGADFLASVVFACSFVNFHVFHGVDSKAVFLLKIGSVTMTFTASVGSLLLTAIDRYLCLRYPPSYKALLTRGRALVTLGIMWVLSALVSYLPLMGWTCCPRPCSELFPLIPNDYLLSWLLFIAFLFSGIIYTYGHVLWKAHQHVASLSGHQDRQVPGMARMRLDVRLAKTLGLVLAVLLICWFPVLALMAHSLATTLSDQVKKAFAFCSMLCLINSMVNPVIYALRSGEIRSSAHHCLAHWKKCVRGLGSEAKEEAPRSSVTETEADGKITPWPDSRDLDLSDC

`CC1(C)C(C(=O)c2cn(CC3CCOCC3)c3cccc(O)c23)C1(C)C` [1-(oxan-4-ylmethyl)-3-[(2,2,3,3-tetramethylcyclopropyl)carbonyl]-1H-indol-4-ol] was tested. Which EC50 did it give?
The EC50 was 73 nM.

For `CC1(C)C(C(=O)c2cn(CC3CCOCC3)c3ccc(N)cc23)C1(C)C` [1-(oxan-4-ylmethyl)-3-[(2,2,3,3-tetramethylcyclopropyl)carbonyl]-1H-indol-5-amine], which EC50 is on record?
The EC50 was 15.5 nM.

How did the EC50 turn out when `CC1(C)C(C(=O)c2cn(CC3CCOCC3)c3ccc(O)cc23)C1(C)C` [1-(oxan-4-ylmethyl)-3-[(2,2,3,3-tetramethylcyclopropyl)carbonyl]-1H-indol-5-ol] was run?
Its EC50 is 11 nM.

How did the EC50 turn out when `CC1(C)C(C(=O)c2cn(CC3CCOCC3)c3cc(O)ccc23)C1(C)C` [1-(oxan-4-ylmethyl)-3-[(2,2,3,3-tetramethylcyclopropyl)carbonyl]-1H-indol-6-ol] was run?
Its EC50 is 18.5 nM.

With `CC1(C)C(C(=O)c2cn(CC3CCOCC3)c3cc(O)c(O)cc23)C1(C)C` [1-(oxan-4-ylmethyl)-3-[(2,2,3,3-tetramethylcyclopropyl)carbonyl]-1H-indole-5,6-diol] as the compound, how does the EC50 read?
Its EC50 is 28 nM.

With `CC1(C)C(C(=O)c2cn(CC3CCOCC3)c3ccc(C#N)cc23)C1(C)C` [1-(oxan-4-ylmethyl)-3-[(2,2,3,3-tetramethylcyclopropyl)carbonyl]-1H-indole-5-carbonitrile] as the compound, how does the EC50 read?
The EC50 was 263 nM.

`CC1(C)C(C(=O)c2cn(CC3CCOCC3)c3cc(C#N)ccc23)C1(C)C` [1-(oxan-4-ylmethyl)-3-[(2,2,3,3-tetramethylcyclopropyl)carbonyl]-1H-indole-6-carbonitrile] was tested. Which EC50 did it give?
The EC50 was 53 nM.

How did the EC50 turn out when `CC1(C)C(C(=O)c2cn(CC3CCOCC3)c3ccccc23)C1(C)C` [1-(oxan-4-ylmethyl)-3-[(2,2,3,3-tetramethylcyclopropyl)carbonyl]-1H-indole] was run?
Its EC50 is 9.5 nM.

How did the EC50 turn out when `CC1(C)C(C(=O)c2cn(CCN3CCOCC3)c3cccc(N)c23)C1(C)C` [1-[2-(morpholin-4-yl)ethyl]-3-[(2,2,3,3-tetramethylcyclopropyl)carbonyl]-1H-indol-4-amine] was run?
Its EC50 is 215 nM.

`CC1(C)C(C(=O)c2cn(CC3CCOCC3)c3c(F)c(F)c(F)c(F)c23)C1(C)C` [4,5,6,7-tetrafluoro-1-(oxan-4-ylmethyl)-3-[(2,2,3,3-tetramethylcyclopropyl)carbonyl]-1H-indole] was tested. Which EC50 did it give?
Its EC50 is 40 nM.

`Cc1c(C(=O)C2C(C)(C)C2(C)C)c2ccccc2n1CCN1CCOCC1` [4-(2-{2-methyl-3-[(2,2,3,3-tetramethylcyclopropyl)carbonyl]-1H-indol-1-yl}ethyl)morpholine] was tested. Which EC50 did it give?
The EC50 was 362 nM.

How did the EC50 turn out when `CC1(C)C(C(=O)c2cn(CCN3CCOCC3)c3ccccc23)C1(C)C` [4-(2-{3-[(2,2,3,3-tetramethylcyclopropyl)carbonyl]-1H-indol-1-yl}ethyl)morpholine] was run?
Its EC50 is 17.5 nM.

`CC1(C)C(C(=O)c2cn(CC3CCOCC3)c3cccc(OCc4ccccc4)c23)C1(C)C` [4-(benzyloxy)-1-(oxan-4-ylmethyl)-3-[(2,2,3,3-tetramethylcyclopropyl)carbonyl]-1H-indole] was tested. Which EC50 did it give?
The EC50 was 502 nM.

For `COc1cccc2c1c(C(=O)C1C(C)(C)C1(C)C)cn2CC1CCOCC1` [4-methoxy-1-(oxan-4-ylmethyl)-3-[(2,2,3,3-tetramethylcyclopropyl)carbonyl]-1H-indole], which EC50 is on record?
The EC50 was 91 nM.

`COCc1ccc2c(c1)c(C(=O)C1C(C)(C)C1(C)C)cn2CC1CCOCC1` [5-(methoxymethyl)-1-(oxan-4-ylmethyl)-3-[(2,2,3,3-tetramethylcyclopropyl)carbonyl]-1H-indole] was tested. Which EC50 did it give?
Its EC50 is 74.5 nM.

`CC1(C)C(C(=O)c2cn(CC3CCOCC3)c3cc4c(cc23)OCO4)C1(C)C` [5-(oxan-4-ylmethyl)-7-[(2,2,3,3-tetramethylcyclopropyl)carbonyl]-2H,5H-[1,3]dioxolo[4,5-f]indole] was tested. Which EC50 did it give?
The EC50 was 29.5 nM.

How did the EC50 turn out when `CC1(C)C(C(=O)c2cn(CC3CCOCC3)c3ccc(Br)cc23)C1(C)C` [5-bromo-1-(oxan-4-ylmethyl)-3-[(2,2,3,3-tetramethylcyclopropyl)carbonyl]-1H-indole] was run?
Its EC50 is 390 nM.

For `CC1(C)C(C(=O)c2cn(CC3CCOCC3)c3ccc(Cl)cc23)C1(C)C` [5-chloro-1-(oxan-4-ylmethyl)-3-[(2,2,3,3-tetramethylcyclopropyl)carbonyl]-1H-indole], which EC50 is on record?
The EC50 was 132 nM.

With `CC1(C)C(C(=O)c2cn(CC3CCOCC3)c3ccc(F)cc23)C1(C)C` [5-fluoro-1-(oxan-4-ylmethyl)-3-[(2,2,3,3-tetramethylcyclopropyl)carbonyl]-1H-indole] as the compound, how does the EC50 read?
Its EC50 is 36.5 nM.

With `COc1ccc2c(c1)c(C(=O)C1C(C)(C)C1(C)C)cn2CC1CCOCC1` [5-methoxy-1-(oxan-4-ylmethyl)-3-[(2,2,3,3-tetramethylcyclopropyl)carbonyl]-1H-indole] as the compound, how does the EC50 read?
Its EC50 is 101 nM.

Which EC50 does the source give for `CC1(C)C(C(=O)c2cn(CC3CCOCC3)c3cc(OCc4ccccc4)ccc23)C1(C)C` [6-(benzyloxy)-1-(oxan-4-ylmethyl)-3-[(2,2,3,3-tetramethylcyclopropyl)carbonyl]-1H-indole] here?
The EC50 was 167 nM.

How did the EC50 turn out when `CC1(C)C(C(=O)c2cn(CC3CCOCC3)c3cc(Cl)ccc23)C1(C)C` [6-chloro-1-(oxan-4-ylmethyl)-3-[(2,2,3,3-tetramethylcyclopropyl)carbonyl]-1H-indole] was run?
Its EC50 is 21 nM.

How did the EC50 turn out when `CC1(C)C(C(=O)c2cn(CC3CCOCC3)c3ccc(CO)cc23)C1(C)C` [[1-(oxan-4-ylmethyl)-3-[(2,2,3,3-tetramethylcyclopropyl)carbonyl]-1H-indol-5-yl]methanol] was run?
The EC50 was 97.5 nM.

— BindingDB's records for doi:10.1021/jm7011613 (Abbott Laboratories, 2008)
